Reference: PubChem BioAssay AID1259407 (Chemical Carcinogenesis Research Information System (CCRIS), 2018)
Calls of active or inactive are those of the source. How the calls were made is not given here.

Test system: CCRIS mutagenicity, Ames/micronucleus/aberration tests
Test: CCRIS mutagenicity studies
[1] = Test System: AMES SALMONELLA TYPHIMURIUM, Strain/Indicator: TA98, Metabolic Activation: NONE, Method: PREINCUBATION
[2] = Test System: AMES SALMONELLA TYPHIMURIUM, Strain/Indicator: TA98, Metabolic Activation: NONE, Method: STANDARD PLATE
[3] = Test System: AMES SALMONELLA TYPHIMURIUM, Strain/Indicator: TA100, Metabolic Activation: NONE, Method: PREINCUBATION
[4] = Test System: AMES SALMONELLA TYPHIMURIUM, Strain/Indicator: TA100, Metabolic Activation: NONE, Method: STANDARD PLATE

C=C(Cl)CCl
mutagenic call (End Point: IN VITRO CHROMOSOMAL ABERRATIONS, Test System: CHO-LB CELLS, Metabolic Activation: NONE): active; positive
mutagenic call (End Point: IN VITRO CHROMOSOMAL ABERRATIONS, Test System: CHO-LB CELLS, Metabolic Activation: RAT, LIVER, S-9, AROCLOR 1254): active; positive
mutagenic call (Test System: AMES SALMONELLA TYPHIMURIUM, Strain/Indicator: TA97, Metabolic Activation: HAMSTER, LIVER, S-9, AROCLOR 1254 (10%), Method: PREINCUBATION): active; positive
mutagenic call (Test System: AMES SALMONELLA TYPHIMURIUM, Strain/Indicator: TA97, Metabolic Activation: NONE, Method: PREINCUBATION): active; positive
mutagenic call (Test System: AMES SALMONELLA TYPHIMURIUM, Strain/Indicator: TA97, Metabolic Activation: RAT, LIVER, S-9, AROCLOR 1254 (10%), Method: PREINCUBATION): active; positive
mutagenic call (Test System: AMES SALMONELLA TYPHIMURIUM, Strain/Indicator: TA98, Metabolic Activation: HAMSTER, LIVER, S-9, AROCLOR 1254 (10%), Method: PREINCUBATION): active; positive
mutagenic call (Test System: AMES SALMONELLA TYPHIMURIUM, Strain/Indicator: TA98, Metabolic Activation: HAMSTER, LIVER, S-9, AROCLOR 1254, Method: STANDARD PLATE): active; positive
mutagenic call [1]: active; positive
mutagenic call [2]: active; positive
mutagenic call (Test System: AMES SALMONELLA TYPHIMURIUM, Strain/Indicator: TA98, Metabolic Activation: RAT, LIVER, S-9, AROCLOR 1254 (10%), Method: PREINCUBATION): active; positive
mutagenic call (Test System: AMES SALMONELLA TYPHIMURIUM, Strain/Indicator: TA98, Metabolic Activation: RAT, LIVER, S-9, AROCLOR 1254, Method: STANDARD PLATE): inactive; negative
mutagenic call (Test System: AMES SALMONELLA TYPHIMURIUM, Strain/Indicator: TA100, Metabolic Activation: HAMSTER, LIVER, S-9, AROCLOR 1254 (10%), Method: PREINCUBATION): active; positive
mutagenic call (Test System: AMES SALMONELLA TYPHIMURIUM, Strain/Indicator: TA100, Metabolic Activation: HAMSTER, LIVER, S-9, AROCLOR 1254, Method: STANDARD PLATE): active; positive
mutagenic call [3]: active; positive
mutagenic call [4]: active; positive
mutagenic call (Test System: AMES SALMONELLA TYPHIMURIUM, Strain/Indicator: TA100, Metabolic Activation: RAT, LIVER, MICROSOMES, PHENOBARBITAL, NADPH COFACTORS, Method: STANDARD PLATE): inactive; negative
mutagenic call (Test System: AMES SALMONELLA TYPHIMURIUM, Strain/Indicator: TA100, Metabolic Activation: RAT, LIVER, MICROSOMES, PHENOBARBITAL, Method: STANDARD PLATE): inactive; negative
mutagenic call (Test System: AMES SALMONELLA TYPHIMURIUM, Strain/Indicator: TA100, Metabolic Activation: RAT, LIVER, S-9, AROCLOR 1254 (10%), Method: PREINCUBATION): active; positive
mutagenic call (Test System: AMES SALMONELLA TYPHIMURIUM, Strain/Indicator: TA100, Metabolic Activation: RAT, LIVER, S-9, AROCLOR 1254, Method: STANDARD PLATE): active; positive
mutagenic call (Test System: AMES SALMONELLA TYPHIMURIUM, Strain/Indicator: TA102, Metabolic Activation: S-9, Method: STANDARD PLATE): inactive; negative
mutagenic call (Test System: AMES SALMONELLA TYPHIMURIUM, Strain/Indicator: TA1535, Metabolic Activation: HAMSTER, LIVER, S-9, AROCLOR 1254 (10%), Method: PREINCUBATION): active; positive
mutagenic call (Test System: AMES SALMONELLA TYPHIMURIUM, Strain/Indicator: TA1535, Metabolic Activation: HAMSTER, LIVER, S-9, AROCLOR 1254, Method: STANDARD PLATE): active; positive
mutagenic call (Test System: AMES SALMONELLA TYPHIMURIUM, Strain/Indicator: TA1535, Metabolic Activation: NONE, Method: PREINCUBATION): active; positive
mutagenic call (Test System: AMES SALMONELLA TYPHIMURIUM, Strain/Indicator: TA1535, Metabolic Activation: NONE, Method: STANDARD PLATE): active; positive
mutagenic call (Test System: AMES SALMONELLA TYPHIMURIUM, Strain/Indicator: TA1535, Metabolic Activation: RAT, LIVER, S-9, AROCLOR 1254 (10%), Method: PREINCUBATION): active; positive
mutagenic call (Test System: AMES SALMONELLA TYPHIMURIUM, Strain/Indicator: TA1535, Metabolic Activation: RAT, LIVER, S-9, AROCLOR 1254, Method: STANDARD PLATE): active; positive
mutagenic call (Test System: AMES SALMONELLA TYPHIMURIUM, Strain/Indicator: TA1537, Metabolic Activation: HAMSTER, LIVER, S-9, AROCLOR 1254, Method: STANDARD PLATE): inactive; negative
mutagenic call (Test System: AMES SALMONELLA TYPHIMURIUM, Strain/Indicator: TA1537, Metabolic Activation: NONE, Method: STANDARD PLATE): inactive; negative
mutagenic call (Test System: AMES SALMONELLA TYPHIMURIUM, Strain/Indicator: TA1537, Metabolic Activation: RAT, LIVER, S-9, AROCLOR 1254, Method: STANDARD PLATE): inactive; negative
mutagenic call (Test System: AMES SALMONELLA TYPHIMURIUM, Strain/Indicator: TA1538, Metabolic Activation: HAMSTER, LIVER, S-9, AROCLOR 1254, Method: STANDARD PLATE): inactive; negative
mutagenic call (Test System: AMES SALMONELLA TYPHIMURIUM, Strain/Indicator: TA1538, Metabolic Activation: NONE, Method: STANDARD PLATE): inactive; negative
mutagenic call (Test System: AMES SALMONELLA TYPHIMURIUM, Strain/Indicator: TA1538, Metabolic Activation: RAT, LIVER, S-9, AROCLOR 1254, Method: STANDARD PLATE): inactive; negative
mutagenic call (Test System: AMES SALMONELLA TYPHIMURIUM, Strain/Indicator: TA1978, Metabolic Activation: NONE, Method: STANDARD PLATE): active; positive
mutagenic call (Test System: AMES SALMONELLA TYPHIMURIUM, Strain/Indicator: TA1978, Metabolic Activation: RAT, LIVER, S-9, AROCLOR 1254, Method: STANDARD PLATE): active; positive
mutagenic call (Test System: AMES SALMONELLA TYPHIMURIUM, Strain/Indicator: TA2638, Metabolic Activation: S-9, Method: STANDARD PLATE): inactive; negative
mutagenic call (Test System: E. COLI, Strain/Indicator: WP2 (PKM101), Metabolic Activation: S-9, Method: STANDARD PLATE): inactive; negative
mutagenic call (Test System: E. COLI, Strain/Indicator: WP2 UVRA (PKM101), Metabolic Activation: S-9, Method: STANDARD PLATE): active; positive
mutagenic call (Test System: MOUSE LYMPHOMA, Strain/Indicator: L5178Y (TK+/TK-), Metabolic Activation: NONE, Method: SUSPENSION/PLATE): active; positive. reevaluation of results: positive
mutagenic call (Test System: MOUSE LYMPHOMA, Strain/Indicator: L5178Y (TK+/TK-), Metabolic Activation: RAT, LIVER, S-9, AROCLOR 1254, Method: SUSPENSION/PLATE): active; positive. reevaluation of results: positive

COC(=O)c1oc([N+](=O)[O-])c(-c2ccccc2)c1-c1ccccc1
mutagenic call (Test System: AMES SALMONELLA TYPHIMURIUM, Strain/Indicator: TA98(1,8-DNP6), Metabolic Activation: NONE, Method: STANDARD PLATE): active; positive
mutagenic call (Test System: AMES SALMONELLA TYPHIMURIUM, Strain/Indicator: TA98(NR), Metabolic Activation: NONE, Method: STANDARD PLATE): inactive; negative
mutagenic call [1]: active; positive
mutagenic call [2]: active; positive
mutagenic call (Test System: AMES SALMONELLA TYPHIMURIUM, Strain/Indicator: TA100(NR), Metabolic Activation: NONE, Method: STANDARD PLATE): active; positive
mutagenic call [3]: active; positive
mutagenic call [4]: active; positive
mutagenic call (Test System: AMES SALMONELLA TYPHIMURIUM, Strain/Indicator: TA104, Metabolic Activation: NONE, Method: STANDARD PLATE): active; positive

Cc1c(C(=O)O)c(O)cc2c1C(=O)c1c(O)c([C@@H]3O[C@@H](CO)[C@H](O)[C@@H](O)[C@H]3O)c(O)c(O)c1C2=O
mutagenic call (Test System: AMES SALMONELLA TYPHIMURIUM, Strain/Indicator: TA100, Method: PREINCUBATION): active; positive

CC(=O)N(O)c1ccc2c(ccc3ccccc32)c1
mutagenic call (Test System: UDS HUMAN FIBROBLASTS, Strain/Indicator: THY INCORP (NON-S-PHASE), Metabolic Activation: NONE, Method: AUTORADIOGRAPHY): active; positive

Cc1c2ccccc2c2ccc3cccc4ccc1c2c43
mutagenic call (Test System: AMES SALMONELLA TYPHIMURIUM, Strain/Indicator: TA100, Metabolic Activation: RAT, NADPH-FORTIFIED HOMOGENIZED HEPATOCYTES, AROCLOR 1254, Method: PREINCUBATION): active; positive
mutagenic call (Test System: CHINESE HAMSTER V-79, Strain/Indicator: V-79/8-AZAGUANINE, Metabolic Activation: HAMSTER, EMBRYO, CELL-MEDIATED, Method: STANDARD PLATE): active; positive
